Data from PMC2715367 (Journal of medicinal chemistry, 2009).
Marks after values point to notes of the source that are not given here.

Assays:
[1] = target: T1, human 14DM (Homo sapiens, UniProt Q16850); assay: Inhibition of human 14DM; type: biochemical; details: same conditions as Tc14DM assay
T1 sequence (Q16850 1-509): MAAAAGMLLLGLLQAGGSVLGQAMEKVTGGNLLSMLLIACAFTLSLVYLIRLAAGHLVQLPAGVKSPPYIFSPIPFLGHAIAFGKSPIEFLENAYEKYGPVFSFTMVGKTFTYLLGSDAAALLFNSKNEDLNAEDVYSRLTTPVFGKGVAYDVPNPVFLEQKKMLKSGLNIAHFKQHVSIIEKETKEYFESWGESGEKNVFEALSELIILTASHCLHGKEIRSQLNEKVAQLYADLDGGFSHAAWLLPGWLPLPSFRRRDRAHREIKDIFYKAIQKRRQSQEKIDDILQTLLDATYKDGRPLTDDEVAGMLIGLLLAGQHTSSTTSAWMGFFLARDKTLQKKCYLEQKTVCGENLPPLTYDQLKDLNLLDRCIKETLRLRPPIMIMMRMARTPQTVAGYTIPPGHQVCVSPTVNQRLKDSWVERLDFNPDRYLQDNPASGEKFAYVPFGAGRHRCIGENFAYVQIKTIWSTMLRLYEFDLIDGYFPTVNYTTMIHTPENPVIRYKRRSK

[2] = tested on: T. cruzi trypomastigotes (Tulahuen strain); assay: Efficacy studies in T. cruzi infected mice; type: in vivo; details: for Weight loss in mice: 100 mg/kg twice per day, days 8−13; for Survival of infected mice: oral gavage for 20 days from day 8 post-infection
[3] = target: rat PFT (Rattus norvegicus, UniProt Q02293+Q04631); assay: Rat PFT scintillation proximity assay; type: biochemical; details: for Fold increase in PFT IC50 (decrease in PFT inhibition) compared to tipifarnib: rat PFT
[4] = target: recombinant human CYP3A4 enzyme (Homo sapiens, UniProt P08684); assay: CYP3A4 inhibition assay; type: in vitro ADME; details: in vitro
[5] = Pharmacokinetic studies in mice; details: female, BALB/c, mouse, po, 50 mg/kg
[6] = tested on: mammalian cytochrome P450 enzymes; details: cited from earlier work
[7] = tested on: T. cruzi amastigotes; assay: T. cruzi growth inhibition assay; type: cell-based; details: Trypanosoma cruzi, read-out: T. cruzi amastigote EC50
[8] = oral; cited from earlier work
[9] = cited from earlier work
[10] = tested on: T. cruzi PFT enzyme; details: cited from earlier work

recombinant human CYP3A4 enzyme, sequence (P08684 whole entry): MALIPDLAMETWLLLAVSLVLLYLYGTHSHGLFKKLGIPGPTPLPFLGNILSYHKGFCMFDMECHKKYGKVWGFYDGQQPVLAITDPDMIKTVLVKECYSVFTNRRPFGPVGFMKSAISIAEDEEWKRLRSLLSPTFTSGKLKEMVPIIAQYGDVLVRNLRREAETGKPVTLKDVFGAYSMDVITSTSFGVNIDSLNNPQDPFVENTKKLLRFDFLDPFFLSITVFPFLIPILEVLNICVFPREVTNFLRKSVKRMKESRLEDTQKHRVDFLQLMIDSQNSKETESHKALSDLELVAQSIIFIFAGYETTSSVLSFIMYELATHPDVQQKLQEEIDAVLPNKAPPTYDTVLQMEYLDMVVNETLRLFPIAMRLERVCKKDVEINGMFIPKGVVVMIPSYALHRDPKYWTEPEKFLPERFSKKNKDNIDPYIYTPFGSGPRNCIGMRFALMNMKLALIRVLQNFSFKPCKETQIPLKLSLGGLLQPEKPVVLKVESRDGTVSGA

Cn1cncc1[C@@](N)(c1ccc(Cl)cc1)c1ccc2c(c1)c(-c1cccc3ccccc13)cc(=O)n2C (racemic) [Compound 2f]
Inhibition of human 14DM [1]: do not inhibit

O=C(Cn1ccnc1[N+](=O)[O-])NCc1ccccc1 [Benznidazole, benznidazole]
Mice with positive parasite blood cultures ([2]; surviving mice sacrificed at day 103 post-infection): 3 of 6

Cc1cc([C@@](N)(c2ccc3c(c2)c(-c2cccc(Cl)c2)cc(=O)n3C)c2cncn2C)ccc1Cl (racemic) [Compound 2a]
Fold increase in PFT IC50 (decrease in PFT inhibition) compared to tipifarnib [3]: 19 fold

COC(c1ccc(Cl)cc1)(c1ccc2c(c1)c(-c1cccc(Cl)c1C)cc(=O)n2C)c1cncn1C (racemic) [Compound 2g, 4-(3-Chloro-2-methylphenyl)-6-((4-chlorophenyl)(methoxy)(1-methyl-1H-imidazol-5-yl)methyl)-1-methylquinolin-2(1H)-one]
Weight loss in mice [2]: some weight loss was observed
Survival of infected mice [2]: One mouse in the 2g group died after the end of treatment
Inhibition of human 14DM [1]: do not inhibit
Ratio IC50/EC50 ([3]; PFT IC50 / T. cruzi amastigote EC50): >7700 ^*
inhibition at 5 µM ([3]; read-out: PFT inhibition at highest concentration evaluated): < 50%
Inhibition of CYP3A4 (in words) [4]: weak inhibition
Cmax ([5]; plasma): 5 to 7 µM

Cc1c(Cl)cccc1-c1cc(=O)n(C)c2ccc([C@](N)(c3ccc(Cl)cc3)c3cncn3C)cc12 (racemic) [Compound 2c]
Inhibition of human 14DM [1]: do not inhibit

Cc1ccccc1-c1cc(=O)n(C)c2ccc([C@](N)(c3ccc(Cl)cc3)c3cncn3C)cc12 (racemic) [Compound 2d]
Fold increase in PFT IC50 (decrease in PFT inhibition) compared to tipifarnib [3]: about 430 fold

Cn1cncc1[C@@](N)(c1ccc(Cl)cc1)c1ccc2c(c1)c(-c1cccc(Cl)c1)cc(=O)n2C [Tipifarnib, tipifarnib]
Weight loss in mice [2]: some weight loss was observed
Survival of infected mice [2]: did not protect the mice from death
Delay in development of high parasitemia ([2]; oral gavage twice daily from day 8 post-infection): 3−4 days
Inhibitory activity against mammalian cytochrome P450 enzymes [6]: very little inhibitory activity
EC50 [7]: 6 nM
Inhibition of human 14DM [1]: do not inhibit
Terminal half-life [8]: 16 h
Dose limiting toxicities in humans [9]: bone marrow suppression
Activity against isolated T. cruzi PFT enzyme [10]: weak activity
Cmax ([5]; in vivo): 5 to 7 µM
half-life ([5]; in vivo): ~240 min
